Experimental data reported in patent US20230287416A1, “COMBINATORY TREATMENT OF SMA WITH SARNA AND MRNA MODULATORS” (RACTIGEN THERAPEUTICS, priority 2020, published 2023).

System: SMN2 mRNA
Test: RT-qPCR of SMN2FL and SMN2 Δ7 mRNA in brain, liver and spinal cord of SMA type III mice
Type: in vivo, mouse
Experimental: The combinatory effect of LNP-R6-04M1 with LNP-ASO-10-27 or with Risdiplam were in evaluated in vivo, in SMA type IU mice. Neonatal mice were divided into 10 treatment groups: • Treatment Group 1: administration of LNP-R6-04M1 via ICV injection (injected twice on P1 and P3 respectively, each with 10 ug of LNP-R6-04M1); • Treatment Group 2: administration of LNP-ASO-10-27 via ICV injection (injected twice on P1 and P3 respectively, each with 10 ug of LNP-ASO-10-27); • Treatment Group 3: administration of Risdiplam via IP injection on P1 at a concentration of 0.3 mg/kg; • Treatment Group 4: administration of Risdiplam via IP injection on P1 at a concentration of 1 mg/kg; • Treatment Group 5: administration of Risdiplam via IP injection on P1 at a concentration of 3 mg/kg; • Treatment Group 6: combinatory treatment via administration of LNP-R6-04M1 and LNP-ASO-10-27. LNP-R6-04M1 was administered via ICV injection on P1 (10 ug), while LNP-ASO-10-27 was administered via ICV injection on P3 (10 ug); • Treatment Group 7: combinatory treatment via administration of LNP-ASO-10-27 and LNP-R6-04M1. LNP-ASO-10-27 was administered via ICV injection on P1 (10 ug), while LNP-R6-04M1 was administered via ICV injection on P3 (10 ug); • Treatment Group 8: combinatory treatment of LNP-R6-04M1 and Risdiplam. LNP-R6-04M1 was injected on P1 (10 ug) via ICV injection, and Risdiplam was injected via IP injection on P3 at a concentration of 0.3 mg/kg; • Treatment Group 9: combinatory treatment of LNP-R6-04M1 and Risdiplam. LNP-R6-04M1 was injected on P1 (10 ug) via ICV injection, and Risdiplam was injected via IP injection on P3 at a concentration of 1 mg/kg;
The SMA type LII mice were treated saline twice on P1 (5 μL) and P3(5 μL) via subcutaneous (SC) injection. P1 and P3 means postnatal day 1 and day3;
Treatment Group 10: treatment of mice with saline SMN2FL and SMN2 Δ7 mRNA levels were quantified by RT-qPCR in tissues of the brain, liver and spinal cord.
For RNA isolation from cultured cells, total cellular RNA was isolated from treated cells using an RNeasy Plus Mini kit (Qiagen, Hilden, Germany) according to its manual. To isolated RNA from animal tissues, tissues were harvested and stored at RNA later (AM7021, Thermo Fisher). Total RNA was then isolated using MagPure Total RNA Micro LQ kit (Magen, R6621, China) by auto-pure96 machine (ALLSHENG, China). The resultant RNA (1 μg) was reverse transcribed into cDNA by using a PrimeScript RT kit containing gDNA Eraser (Takara, Shlga, Japan). The resultant cDNA was amplified in an ABI 7500 Fast Real-time PCR System (Applied Biosystems; Foster City, Calif.) using SYBR Premix Ex Taq 11 (Takara, Shlga, Japan) reagents and primers which specifically amplified full-length (SMN2FL) or A7 SMN2 mRNA (SMN2 Δ7) (FIG. 1). The reaction conditions were: 95° C. for 3 seconds (1 cycle) and 60° C. for 30 seconds (40 cycles). Amplification of TBP gene served as an internal control.
All animal procedures were conducted by certified laboratory personnel using protocols consistent with local and state regulations and approved by the Institutional Animal Care and Use Committee. SMA-like mice created by homozygous knock-out of mouse Smn exon 7 with transgene of human SMN2 (Smn−/−SMN2+/−) as previously described Hsieh-Li et al. (Hsieh-Li, H. M., et al. A mouse model for spinal muscular atrophy. Nature Genet (2000) were obtained from Jackson Laboratories. Tail snips were gathered at postnatal day 0 (P0), and each pup was identified by paw tattooing and genotyped by PCR analysis using a set of 3 specific primers: S1, 5′-[…]-3′, and S2, 5′-[…]-3′ (1,150 bp band for wild type alleles) and S1 and H1, 5′-[…]-3′ (950 bp band for mutant alleles). The PCR products were detected by 1% agarose gel. Severe SMA mice (Smn^−/−, SMN^+/0) were generated. Littermates heterozygous for mouse Smn (Smn1^+/−, SMN2^+/−) were used as controls. […]

[1] = brain, IP on P1, 0.3 mg/kg (Treatment Group 3)
[2] = brain, IP on P1, 1 mg/kg (Treatment Group 4)
[3] = brain, IP on P1, 3 mg/kg (Treatment Group 5)
[4] = liver, IP on P1, 0.3 mg/kg (Treatment Group 3)
[5] = liver, IP on P1, 1 mg/kg (Treatment Group 4)
[6] = liver, IP on P1, 3 mg/kg (Treatment Group 5)

Question: Which results are given for `Cc1cn2nc(-c3cc(=O)n4cc(N5CCNC6(CC6)C5)ccc4n3)cc(C)c2n1` [Risdiplam]?
Answer: SMN2FL mRNA expression, fold relative to control [1]: 1.1 fold; SMN2 Δ7 mRNA expression, fold relative to control [1]: 1.0 fold; SMN2FL mRNA expression, fold relative to control [2]: 1.3 fold; SMN2 Δ7 mRNA expression, fold relative to control [2]: 1.0 fold; SMN2FL mRNA expression, fold relative to control [3]: 1.0 fold; SMN2 Δ7 mRNA expression, fold relative to control [3]: 1.0 fold; SMN2FL mRNA expression, fold relative to control [4]: 1.1 fold; SMN2 Δ7 mRNA expression, fold relative to control [4]: 1.0 fold; SMN2FL mRNA expression, fold relative to control [5]: 1.5 fold; SMN2 Δ7 mRNA expression, fold relative to control [5]: 0.9 fold; SMN2FL mRNA expression, fold relative to control [6]: 1.0 fold; SMN2 Δ7 mRNA expression, fold relative to control [6]: 1.0 fold
